The values that follow come from patent US9861679B2, “Method of treating cancer” (priority 2014, dated 2018).

SMILES strings stand for the structures.

For series [1], the system named is Bone Marrow Derived Macrophages (BMDM). Kind of series: BMDM cell viability (CellTiter-Glo) after SMAC mimetic Compound A ± p38 or MK2 inhibitor. The class given is cell-based, mouse. The settings on record: inhibitor 30 min then 500 nM Compound A, 24 h, FIG. 1C. The method, then:
FIG. 1: p38 inhibitors increase TNFα production and cell death induced by SMAC mimetics. A. Bone Marrow Derived Macrophages (BMDM) were pretreated ±1 μM of the indicated p38 inhibitors for 30 min then treated with 500 nM of SMAC mimetic Compound A (CompA) for 24 h. TNFα production was measured by ELISA of supernatants. B. BMDM were pretreated 500 nM of SMAC mimetic Compound A, GT13072 or birinapant ±1 μM of LY2228820. TNFα production was measured by ELISA of supernatants. N=3 biological repeats and error bars are SEM. C. BMDM were pretreated±the indicated dose of MK2 inhibitor PF-3644022 and the p38 inhibitor LY2228820, VX-702, TAK-715 or VX-745 for 30 min then treated with 500 nM of SMAC mimetic Compound A. Cell viability was measured after 24 h of treatment using CellTiter-Glo® (CTG) reagent. N=3 biological repeats and error bars are SEM.
BMDMs from C56/B16, p38α^LysMCre or Mk2^−/− were cultured for 6 days in DMEM+10% FBS (v/v)+20% L929 mouse fibroblasts (a source of macrophage colony stimulating factor), plated and assayed the following day. BMDMs cells were seeded and assayed in the presence of L929 conditioned medium. AML cells were cultured in IMDM+10% FBS (v/v)+2.5 ng/ml of IL-3. NCI-H929 cells were cultured in RPMI+10% FBS (v/v). Cell suspension from breast ER+ patient derived tumours was cultured in mammosphere media. After treatment with SMAC mimetic with or without kinases inhibitors cell viability was measured by staining with propidium iodide (2 μg/mL) or by using CellTiter-Glo® (Promega).
On the technique in general: Cellular ATP, detected with luciferase, serves as a proxy for viable cell number.

Series [2] relates to low- and intermediate-1-risk Myelodysplastic syndromes. The conditions noted are these: cited from earlier work.
Series [3] deals with C57BL/6 mice. Kind of series: Tolerability of SMAC mimetic plus p38 inhibitor in non tumour-bearing mice. The class given is in vivo. The settings on record: LY2228820 15 mg/kg combined with GT13072 5 mg/kg; FIG. 7C. The method, then:
FIG. 7: Mice tolerate administration of birinapant plus p38 inhibitor. A. Mononuclear cells isolated from healthy donor by Ficoll sedimentation were treated for 48 h with indicated drugs. CD34^+ cell death was measured by staining with PI and flow cytometry. For each donor sample, graphs show mean of at least n=2 technical replicates across n=2-5 independent experiments. B and C. C57BL/6 mice were intra-peritoneally injected with vehicle (captisol 6%) or birinapant (B) or GT13072 (C) or LY2228820 or combination of LY2228820 and SM at indicated concentration. Mice received 8 injections twice a week over 4 weeks. Mice were euthanised 2 weeks after the treatment stopped. Graphs show organs, body weights and blood cell populations with 6 mice/group (B), 4 mice/group (C). Error bars are SEM.
To assess the safety of SMAC mimetic plus p38 inhibitor C57BL6 mice were injected by intra-peritoneal route twice a week for 4 weeks with either vehicle (6% Captisol) or 15 mg/kg of LY222820 or 5 mg/kg birinapant±15 mg/kg LY2228820, or 10 mg/kg birinapant±15 mg/kg LY2228820. Another cohort received either vehicle or 5 mg/kg of GT13072, or 15 mg/kg of LY222820 or combination.
200 μL of blood was collected from the retro-orbital plexus into tubes containing potassium ethylenediaminetetraacetic acid (Sarstedt) and analyzed in an Advia 2120 automated hematologic analyzer (Bayer).

For series [4], the system named is Bone Marrow Derived Macrophages (BMDM). The series is described as follows: TNFα production by ELISA in BMDM treated with SMAC mimetic ± p38 inhibitors (kinase inhibitors screen). The class given is cell-based, mouse. The settings on record: 500 nM CompA, GT13072 or birinapant ± 1 μM LY2228820, FIG. 1B. As to the method:
FIG. 1: p38 inhibitors increase TNFα production and cell death induced by SMAC mimetics. A. Bone Marrow Derived Macrophages (BMDM) were pretreated ±1 μM of the indicated p38 inhibitors for 30 min then treated with 500 nM of SMAC mimetic Compound A (CompA) for 24 h. TNFα production was measured by ELISA of supernatants. B. BMDM were pretreated 500 nM of SMAC mimetic Compound A, GT13072 or birinapant ±1 μM of LY2228820. TNFα production was measured by ELISA of supernatants. N=3 biological repeats and error bars are SEM. C. BMDM were pretreated±the indicated dose of MK2 inhibitor PF-3644022 and the p38 inhibitor LY2228820, VX-702, TAK-715 or VX-745 for 30 min then treated with 500 nM of SMAC mimetic Compound A. Cell viability was measured after 24 h of treatment using CellTiter-Glo® (CTG) reagent. N=3 biological repeats and error bars are SEM. BMDMs from C56/B16, p38α^LysMCre or Mk2^−/− were cultured for 6 days in DMEM+10% FBS (v/v)+20% L929 mouse fibroblasts (a source of macrophage colony stimulating factor), plated and assayed the following day. BMDMs cells were seeded and assayed in the presence of L929 conditioned medium. AML cells were cultured in IMDM+10% FBS (v/v)+2.5 ng/ml of IL-3. […] After treatment with SMAC mimetic with or without kinases inhibitors cell viability was measured by staining with propidium iodide (2 μg/mL) or by using CellTiter-Glo® (Promega). […]
In general terms: An ELISA detects its analyte on a solid surface through an enzyme-linked reagent.

Series [5] deals with advanced solid tumours and lymphoma. The settings on record: intravenous administration, Phase I, patients; cited from earlier work.
Series [6] concerns human AML patient samples. Kind of series: In vitro response of human AML patient samples to Birinapant. The class given is cell-based. The conditions noted are these: single agent.
Series [7] deals with MLL-ENL-luciferase leukemic cells. The series is described as follows: Anti-tumour efficacy in mice bearing MLL-ENL-luciferase leukemia. The conditions noted are these: mice bearing MLLENL-Luc, after one week of treatment; birinapant 5 mg/kg, LY2228820 10 mg/kg i.p. twice a week; FIG. 8A. The class given is in vivo, mouse. The method, then: FIG. 8: Combination of birinapant with p38 inhibitor decreases AML tumor burden. Mice bearing MLLENL-luciferase (A and B) or MLL-AF9 (C) leukemic cells received i.p injections of birinapant (5 mg/kg), LY2228820 (10 mg/kg) or the combined drugs twice a week for 4 weeks. A. Representative data of in vivo imaging of leukaemia progression in mice bearing MLL-ENL-luciferase. B. Kaplan-Meier survival curve of mice bearing MLL-ENL-luciferase and treated or not with birinapant, LY222820 or combined therapy. C. Kaplan-Meier survival curve of mice bearing MLL-AF9 and treated or not with birinapant, LY222820 or combined therapy.
To assess the anti-tumour efficacy of SMAC mimetic plus p38 inhibitor C57BL6 Albinos mice were injected by intra-venous route with 5·10^5 MLLENLluc. Luciferase activity was measured at D4 and D8 after leukemic cells injection to ensure engraftment. Treatment started at D8. Mice were treated twice a week for 4 weeks with either vehicle (6% Captisol), 5 mg/kg of Birinapant, or 10 mg/kg of LY222820 or combination. Mice were monitored for leukemia progression once a week using the in vivo bioluminescent imaging. […]
To assess the therapeutic efficacy of the combination multiple primary MLL-ENL and MLL-AF9 leukemias were transplanted and the secondary recipient mice were treated with the different drugs. […] The engraftment and trafficking were evaluated by in vivo bioluminescent imaging. […]

Setting [8] is: oral administration, Phase I/II, patients.

As to `Cc1ccc(-c2ccc3c(ccc4sc5c(c43)NC[C@@H](C)NC5=O)n2)cn1` [PF-3644022], the “cell death induced by SMAC mimetics” value in series [1] was “dramatically increased”.

With `NC(=O)c1ccc(N(C(N)=O)c2c(F)cccc2F)nc1-c1ccc(F)cc1F` [VX-702], in series [1], the “cell death induced by SMAC mimetics” value is given as “dramatically increased”.

Regarding `C[C@@H]1CN(Cc2ccc(F)cc2)[C@@H](C)CN1C(=O)c1cc2c(C(=O)C(=O)N(C)C)cn(C)c2cc1Cl` [Talmapimod], in series [2] (setting [8]), the complete remission result is “only one patient achieved a complete remission” and the tolerability result is on record as “well tolerated”. Also, the “duration of complete remission” value in series [2] (the one patient with complete remission) is “more than 2 years”.

`CC(C)(C)Cn1c(N)nc2ccc(-c3[nH]c(C(C)(C)C)nc3-c3ccc(F)cc3)nc21` [LY2228820]: the “cell death induced by SMAC mimetics” value in series [1] was “dramatically increased”. Besides, the “effect on splenomegaly induced by GT13072” value in series [3] is on record as “did not even exacerbate”. For the same compound, in series [4], the “TNF production of three different smac-mimetics” value was “increased TNF production”.

Turning to `CCc1nc(-c2cccc(C)c2)c(-c2ccnc(NC(=O)c3ccccc3)c2)s1` [TAK-715], in series [1], the “cell death induced by SMAC mimetics” value is given as “dramatically increased”.

Turning to `O=c1ncn2nc(Sc3ccc(F)cc3F)ccc2c1-c1c(Cl)cccc1Cl` [VX-745], the “cell death induced by SMAC mimetics” value in series [1] was “dramatically increased”.

Regarding `CC[C@H](NC(=O)[C@H](C)NC)C(=O)N1C[C@@H](O)C[C@H]1Cc1c(-c2[nH]c3cc(F)ccc3c2C[C@@H]2C[C@H](O)CN2C(=O)[C@H](CC)NC(=O)[C@H](C)NC)[nH]c2cc(F)ccc12` [Birinapant], in series [5], the anti-tumour activity entry was “evidence of anti-tumour activity” and the tolerability result was “well tolerated with no dose-limiting toxicities”. In addition, in series [6], the “response to Birinapant treatment in vitro” value was “some human AML patient samples did not respond”. In addition, the “response to treatment (bioluminescent imaging)” value in series [7] is listed as “did not”.
